In patent US20230212191A1, “SPIRO-SULFONIMIDAMIDE DERIVATIVES AS INHIBITORS OF MYELOID CELL LEUKEMIA-1 (MCL-1) PROTEIN” (PRELUDE THERAPEUTICS, INCORPORATED, priority 2020, published 2023):

Tests used:
H929 cells = experiment: Cell viability assay (H929 10 FBS); format: cell-based; details: Homo sapiens, NCI-H929, 24 h, CellTiter-Glo or ATPlite, read-out: H929_10FBS IC50
Protocol: Cell Viability Assay (H929 10 FBS)
Dispense 10 μL aliquot of prepared H929 cells (1:1 ratio of cells:Trypan Blue (#1450013, Bio-Rad)) onto cell counting slide (#145-0011, Bio-Rad) and obtain cell density and cell viability using cell counter (TC20, Bio-Rad). Remove appropriate volume of resuspended cells from culture flask to accommodate 4000 cells/well @ 10 μL/well. Transfer H929 cells to 50 mL conical (#430290, Corning). Spin down at 1000 rpm for 5 min using tabletop centrifuge (SPINCHRON 15, Beckman). Discard supernatant and resuspend cell pellet in modified RPMI 1640 (#10-040-CV, Corning) cell culture media containing 10% FBS (F2422-500 ML, Sigma), sodium pyruvate (100 mM) (#25-000-CL, Corning), HEPES buffer (1 M) (#25-060-CL, Corning) and glucose (200 g/L) (A24940-01, Gibco) to a cell density of 400,000 cells/mL. Dispense 10 μL of resuspended H929 cells per well in 384-well small volume TC treated plate (#784080, Greiner Bio-one) using standard cassette (#50950372, Thermo Scientific) on Multi-drop Combi (#5840310, Thermo Scientific) in laminar flow cabinet. Dispense compounds onto plates using digital liquid dispenser (D300E, Tecan). Incubate plates in humidified tissue culture incubator @ 37° C. for 24 hours. Add 10 μL of prepared CellTiTer-Glo® detection buffer (G7570, Promega) or ATPlite 1Step detection reagent (#6016731, Perkin Elmer) to each well of 384-well plate using small tube cassette (#24073295, Thermo Scientific) on Combi multi drop, incubate @ RT for 30-60 min. Read plates with microplate reader (PheraStar, BMG Labtech) using 384 well luminescence mode.

MCL-1 = target: T1, MCL-1 (Homo sapiens, UniProt Q07820); experiment: Cell free Mcl-1:Bim affinity assay (fluorescence polarization competition); format: binding; details: 15 nM MCL-1, 5 nM FITC-Bim tracer, 1 hour at room temperature; Ki calc. from IC50 by Nikolovska-Coleska's equation; read-out: BIM_ Ki
T1 construct: purchased BPS Bioscience
T1 sequence (Q07820 whole entry): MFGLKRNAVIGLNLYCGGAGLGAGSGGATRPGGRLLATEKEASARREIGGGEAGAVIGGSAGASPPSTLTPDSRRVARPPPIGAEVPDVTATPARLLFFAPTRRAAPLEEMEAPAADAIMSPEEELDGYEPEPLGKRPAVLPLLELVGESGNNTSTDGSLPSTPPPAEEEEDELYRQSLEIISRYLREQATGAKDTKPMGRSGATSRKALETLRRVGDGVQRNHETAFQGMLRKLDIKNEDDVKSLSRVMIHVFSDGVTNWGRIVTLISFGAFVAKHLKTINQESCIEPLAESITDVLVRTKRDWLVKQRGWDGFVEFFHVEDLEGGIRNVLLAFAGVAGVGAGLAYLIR
Protocol: Cell Free Mcl-1:Bim Affinity Assay (Mcl-1 Bim)
The binding affinity of each compound was measured via a fluorescence polarization competition assay, in which the compound competes for the same binding site with the ligand, and thus leads to a dose-dependent anisotropy reduction. The tracer ligand utilized was a fluorescein isothiocyanate labelled peptide (FITC-[…]) derived from Bim (GenScript).
The assay was carried out in black half-area 96-well NBS plate (Corning), containing 15 nM of MCL-1 (BPS Bioscience), 5 nM of FITC-Bim and 3-fold serial diluted test compounds in a total volume of 50 μL of assay buffer (20 mM HEPES, 50 mM NaCl, 0.002% Tween 20, 1 mM TCEP, and 1% DMSO). The reaction plate was incubated for 1 hour at room temperature. The change of anisotropy is measured with an Envision multimode plate reader (PerkinElmer) at emission wavelength 535 nm. Fluorescence polarization was calc. in mP unit and the percentage inhibition was calc. by % inhibition=100×(mPDMSO−mP)/(mPDMSO−mPPC), in which mPDMSO is the DMSO control, and mPPC is the positive control. IC50 values were determined from a 10-point dose response curve by fitting the percent inhibition against compound concentration using the GraphPad Prism software. The inhibition constant Ki was subsequently calc. according to the Nikolovska-Coleska's equation (Anal. Biochem., 2004, 332, 261),
where [I]50 is the concentration of the free inhibitor at 50% inhibition, [L]50 is the concentration of the free labeled ligand at 50% inhibition, [P]0 is the concentration of the free protein at 0% inhibition, and Kd is the dissociation constant of the protein-ligand complex.

| IC50 (H929 cells) | Ki (MCL-1) | SMILES |
| --- | --- | --- |
| < 100 nM | < 1 nM | COc1nn(C)cc1C(=O)NS1(=O)=NC(=O)C(C)(C)OC/C=C/[C@H](OC)[C@@H]2CC[C@H]2CN2C[C@@]3(CCCc4cc(Cl)ccc43)COc3ccc1cc32 (stereo partly drawn) [Example 16, N-[(3R,6R,7S,8E,22S)-7′-Chloro-7-methoxy-12,12-dimethyl-13,15-dioxospiro[11,20-dioxa-15-thia-1,14-diazatetracyclo[14.7.2.03,6.019,24]pentacosa-8,14,16,18,24-pentaene-22,4′-2,3-dihydro-1H-naphthalene]-15-yl]-3-methoxy-1-methylpyrazole-4-carboxamide] |
| < 100 nM | < 1 nM | CO[C@H]1/C=C/COC(C)(C)C(=O)N=S(=O)(NC(=O)c2cn(C)nc2C)c2ccc3c(c2)N(C[C@@H]2CC[C@H]21)C[C@@]1(CCCc2cc(Cl)ccc21)CO3 (stereo partly drawn) [Example 17, N-[(3R,6R,7S,8E,22S)-7′-chloro-7-methoxy-12,12-dimethyl-13,15-dioxospiro[11,20-dioxa-15-thia-1,14-diazatetracyclo[14.7.2.03,6.019,24]pentacosa-8,14,16,18,24-pentaene-22,4′-2,3-dihydro-1H-naphthalene]-15-yl]-1,3-dimethylpyrazole-4-carboxamide] |
| < 100 nM | < 1 nM | CCNC(=O)NS1(=O)=NC(=O)C(C)(C)OC/C=C/[C@H](OC)[C@@H]2CC[C@H]2CN2C[C@@]3(CCCc4cc(Cl)ccc43)COc3ccc1cc32 (stereo partly drawn) [Example 20, 1-[(3R,6R,7S,8E,22S)-7′-Chloro-7-methoxy-12,12-dimethyl-13,15-dioxospiro[11,20-dioxa-15-thia-1,14-diazatetracyclo[14.7.2.03,6.019,24]pentacosa-8,14,16,18,24-pentaene-22,4′-2,3-dihydro-1H-naphthalene]-15-yl]-3-ethylurea] |
| < 100 nM | < 1 nM | CO[C@H]1/C=C/COC(C)(C)C(=O)N=S(=O)(NC(=O)N2CC(N(C)C)C2)c2ccc3c(c2)N(C[C@@H]2CC[C@H]21)C[C@@]1(CCCc2cc(Cl)ccc21)CO3 (stereo partly drawn) [Example 33, N-[(3R,6R,7S,8E,22S)-7′-Chloro-7-methoxy-12,12-dimethyl-13,15-dioxospiro[11,20-dioxa-15-thia-1,14-diazatetracyclo[14.7.2.03,6.019,24]pentacosa-8,14,16,18,24-pentaene-22,4′-2,3-dihydro-1H-naphthalene]-15-yl]-3-(dimethylamino)azetidine-1-carboxamide] |
